Common to all, as to format: cell-based
One assay concerns the target T1, USP7 (Homo sapiens, UniProt Q93009).
T1 construct: allowed the analysis of endogenous USP7 degradation in both cell lines; endogenous in cells; host or cells: Panc89 (PDAC) and Ma-Mel-47 (melanoma) cells
Kind of assay: USP7 degradation, Western blot densitometry, Panc89 cells. Particulars: for DC50: read-out: DC50 (half-maximal degradation concentration); for USP7 degradation (in words): 24 h. On the procedure: The melanoma cell line Ma-Mel-47 (established previously[57] from metastatic lesions from patient tumor tissues after written informed consent) and the PDAC cell line Panc89 (RRID: CVCL_4056, also referenced as T3M-4[58]) were cultured in a humidified incubator with 5% CO2 at 37 °C in RPMI1640 (Ma-Mel-47) / DMEM (Panc89) medium containing 10% (v/v) fetal calf serum (FCS) and penicillin/streptomycin (all Gibco, Thermo Fisher Scientific). Studies on human material were approved by the institutional review board. […] Testing for mycoplasma was performed by PCR monthly. To confirm cell identity, STR analysis was performed by the Microsynth Seqlab GmbH.
To prepare samples for Western blot analysis, cells were seeded in 6-well dishes the day before treatment to adhere at 70–80% confluency.
Cell pellets of all PDAC samples were lysed via adding a buffer containing 150 mM NaCl, 50 mM Tris/HCl (pH 7.4), 1% Triton X-100, 10 mM EDTA, 1 mM PMSF, 10 mM orthovanadate, and 1% aprotinin, incubating on ice for 1 h with vortexing every 15 minutes. Lysates were cleared of cell debris by centrifugation at 10,000 ×g at 4 °C for 10 min. […] Lysates were then clarified of cell debris by centrifugation at 13,000 ×g at 4 °C for 15 min. Thereafter, the total protein concentrations were either determined immediately or the protein extracts were stored at −20 or −80 °C. Pellets for samples shown in Fig. 6 and Supplementary Fig. 6 were lysed in 120 µL lysis buffer (50 mM Tris pH 8.0, 150 mM NaCl, 1% (v/v) IGEPAL, 0.5% (w/v) Na-deoxycholate, 0.1% (w/v) SDS) supplemented with 1x EDTA-free inhibitor protease cocktail (cOmplete, Roche) for 15 min at 4 °C. 0.2 µL Turbonuclease (Sigma Aldrich) and 5 mM MgCl2 were then added and lysates were incubated for 15 min at 4 °C. Cell debris was separated by centrifugation at 20,817 ×g for 15 min at 4 °C.
Protein concentrations of cell lysates were measured using the Pierce BCA Protein Assay (Thermo Fisher Scientific) or the Quick Start Bradford Protein Assay (Bio-Rad), following the manufacturers’ protocols. Measurements were recorded on Tecan Spark or Tecan Infinite M200 plate readers. Lysates were kept on ice throughout the entire process.
To separate proteins via SDS-PAGE, 10-20 µg of protein in lysis buffer was diluted with SDS-PAGE loading buffer (for most blots containing DTT or 2-mercaptoethanol) and denatured at 95 °C for 5 min. Protein separation was conducted at 95–110 V using the Mini-PROTEAN electrophoresis system (Bio-Rad). Proteins were then transferred to PVDF or nitrocellulose membranes using the Trans-Blot Turbo system (Bio-Rad) with the Trans-Blot Turbo RTA Kit for PVDF membranes. Prior to transfer, membranes were activated by soaking in 100% ethanol (for PVDF) or distilled water (for nitrocellulose) and proteins were transferred using the Mixed MW or the standard (1.0 A, 25 V, 30 min) protocol.
After transfer, membranes were blocked in 5% (w/v) milk/TBS-T for 1 h and then washed three times for 10 min with TBS-T. They were incubated overnight at 4 °C with the primary antibody in 5% (w/v) milk/TBS-T or 1% (w/v) BSA/TBS-T. Membranes were then washed three times for 10 min with TBS-T and incubated with horseradish peroxidase (HRP)-conjugated secondary antibodies in a solution of 5% (w/v) BSA/TBS-T or 1% (w/v) milk/TBS-T for 1 h at room temperature. PBS-T was used for blots shown in Fig. 6 and Supplementary Fig. 6.
Membranes were incubated with Clarity Western ECL substrate (Bio-Rad) for PDAC samples or Pierce ECL Western Blotting-Substrate (Thermo Fisher Scientific) for melanoma. Chemiluminescent signals were detected with a ChemiDoc Imaging System (Bio-Rad) for PDAC samples or with a ECL Chemostar Imager (Intas Science Imaging) for melanoma samples.
Densitometric quantification of band intensities for Fig. 2c, d was performed using the ImageJ software.

For the next assay, the target named is HiBiT-USP7 (Homo sapiens, UniProt Q93009). Nature of the assay: HiBiT USP7 degradation assay, MV4-11 cells. Particulars: for DC50: MV4-11 HiBiT-USP7, 24 h. On the procedure:
HiBiT-USP7 construct was cloned by extraction of USP7 fragment from plasmid pQHA-USP7 WT puroR (Addgene #46753) using appropriate restriction sites. The USP7 fragment was then ligated into the pRRL-PGK-HiBiT entry vector to generate the plasmid.
Lentiviral infection was used to generate stable a MV4-11 HiBiT cell line. Lentivirus was produced using plasmids psPAX2, pMD2.G, and HiBiT-USP7 plasmid in HEK293 cells. MV4-11 cells were infected with filtered virus supernatant and selected after 48 h of infection for the generation of the stable MV4-11^HiBiT-USP7 cell line.
The assay was performed as described previously. Briefly, MV4-11^HiBiT-USP7 cells were seeded and treated with compounds for the indicated time. Nano-Glo HiBiT Lytic Detection System (Promega) was used for the assay and luminescence was measured on a Tecan Spark microplate reader (Tecan). DC50 values were calculated using the sigmoidal dose-response (four parameters) equation in GraphPad Prism and are given as the concentration where 50% of the total signal was remaining. Dmax values are given as the maximum degradation observed at any concentration.
A general note: HiBiT is a short tag that completes a luciferase, so light tracks the accessible tagged protein.

The target of assay [1] is T2, NanoLuc-USP7 and HaloTag-VHL (Homo sapiens, UniProt P40337+Q93009).
T2 construct: expressed in transfected cells; host or cells: HEK293T, transient transfection (FuGENE HD)
Nature of the assay: Cellular ternary complex formation assay (NanoBRET), HEK293T cells. Particulars: for Ternary complex induction (in words): NanoBRET. How it is done:
The assay was performed as described step-by-step elsewhere. USP7 (NanoLuc-USP7) and VHL (HaloTag-VHL) were cloned in frame with N-terminal NanoLuc or HaloTag, respectively. For transfections, HEK293T cells were diluted in Opti-MEM medium without phenol red (Life Technologies) to 4×10^5 cells/mL and 9 µL were pipetted into each well of a white 384-well plate (Greiner 781207). 1 mL transfection mix was prepared containing 30 µL FuGENE HD (Promega, E2312) and 8 µL of each plasmid, incubated 20 min at RT and 1 µL were pipetted into each well leading to the total assay volume of 10 µL. […] 2 h prior to BRET measurements, the compounds were titrated to the cells using an Echo acoustic dispenser and the cells were incubated further at 37 °C and 5% CO2 to allow complex formation. NanoBRET Nano-Glo substrate and Extracellular NanoLuc Inhibitor (Promega, N2540) were then added as per the manufacturer’s protocol, and filtered luminescence was recorded on a PHERAstar FSX plate reader (BMG Labtech) equipped with a luminescence filter pair (donor: 450 nm BP filter; acceptor: 610 nm LP filter). Data were analyzed using GraphPad Prism 10 software.
For orientation: BRET reads energy transfer from a luciferase to a nearby fluorophore.

[2] abbreviates: Panc89, 24 h, Western blot densitometry.
The mark [3] stands for this setting: MV4-11, MV4-11 HiBiT-USP7, 24 h.

“And” between values parts separate entries of the source, which are not always exact repeats. Equal entries are not always repeated.

Chain of HiBiT-USP7 (Q93009 whole entry, the tested form may be a part): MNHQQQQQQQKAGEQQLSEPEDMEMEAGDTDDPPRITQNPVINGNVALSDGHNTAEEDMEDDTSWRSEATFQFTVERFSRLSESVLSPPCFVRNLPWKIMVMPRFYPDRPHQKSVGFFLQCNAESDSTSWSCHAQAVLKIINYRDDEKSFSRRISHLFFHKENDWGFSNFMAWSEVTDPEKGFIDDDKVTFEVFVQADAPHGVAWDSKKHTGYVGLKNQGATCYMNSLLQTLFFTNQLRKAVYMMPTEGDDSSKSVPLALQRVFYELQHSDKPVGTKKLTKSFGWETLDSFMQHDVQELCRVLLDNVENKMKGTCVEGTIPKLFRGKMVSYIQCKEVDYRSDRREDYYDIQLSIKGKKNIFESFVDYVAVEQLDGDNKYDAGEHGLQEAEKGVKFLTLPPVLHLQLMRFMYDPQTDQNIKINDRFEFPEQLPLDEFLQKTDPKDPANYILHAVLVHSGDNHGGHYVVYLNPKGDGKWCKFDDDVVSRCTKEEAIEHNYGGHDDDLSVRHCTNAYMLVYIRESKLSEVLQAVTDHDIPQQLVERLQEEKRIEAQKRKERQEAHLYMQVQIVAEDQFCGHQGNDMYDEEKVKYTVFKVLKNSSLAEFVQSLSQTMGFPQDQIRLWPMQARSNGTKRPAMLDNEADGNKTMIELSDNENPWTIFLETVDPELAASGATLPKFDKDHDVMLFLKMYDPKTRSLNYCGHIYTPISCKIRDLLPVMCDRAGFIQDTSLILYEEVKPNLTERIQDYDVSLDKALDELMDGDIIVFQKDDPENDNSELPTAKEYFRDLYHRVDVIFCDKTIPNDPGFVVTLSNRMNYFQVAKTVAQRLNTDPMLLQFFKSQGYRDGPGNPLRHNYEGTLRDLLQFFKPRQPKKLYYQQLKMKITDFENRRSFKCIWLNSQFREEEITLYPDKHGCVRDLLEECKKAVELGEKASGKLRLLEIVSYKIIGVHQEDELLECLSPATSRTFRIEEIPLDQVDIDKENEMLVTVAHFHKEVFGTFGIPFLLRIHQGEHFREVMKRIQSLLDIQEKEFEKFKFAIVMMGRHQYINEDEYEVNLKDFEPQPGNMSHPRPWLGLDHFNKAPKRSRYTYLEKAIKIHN
T2 sequence (Q93009 whole entry): as the sequence (Q93009 whole entry, the tested form may be a part) above
T2 sequence (P40337 whole entry): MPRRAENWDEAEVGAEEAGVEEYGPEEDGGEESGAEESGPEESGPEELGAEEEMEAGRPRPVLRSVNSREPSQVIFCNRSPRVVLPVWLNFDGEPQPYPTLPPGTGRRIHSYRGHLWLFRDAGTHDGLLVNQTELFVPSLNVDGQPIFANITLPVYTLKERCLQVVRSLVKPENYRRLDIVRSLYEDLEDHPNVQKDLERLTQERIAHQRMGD
T2 sequence (Q15370 whole entry partner): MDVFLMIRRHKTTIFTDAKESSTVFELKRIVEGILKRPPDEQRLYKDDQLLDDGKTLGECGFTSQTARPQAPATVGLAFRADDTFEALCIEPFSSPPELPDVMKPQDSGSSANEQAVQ
T2 sequence (Q15369 whole entry partner): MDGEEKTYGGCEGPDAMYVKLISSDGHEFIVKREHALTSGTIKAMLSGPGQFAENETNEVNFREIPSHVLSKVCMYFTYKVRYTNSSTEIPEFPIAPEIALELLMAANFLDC
T1 sequence (Q93009 whole entry): as the sequence (Q93009 whole entry, the tested form may be a part) above

Regarding `Cc1ncsc1-c1ccc(CNC(=O)[C@@H]2C[C@H](O)CN2C(=O)[C@@H](NC(=O)[C@H]2CC[C@H](C(=O)N3CCN(c4ccc(-n5ncc6c(=O)n(CC7(O)CCN(C(=O)C[C@@H](C)c8ccccc8)CC7)cnc65)cc4)CC3)CC2)C(C)(C)C)cc1` [NK245], on USP7 (Panc89, 1 µM, over 24 h), the “USP7 levels in time course (in words)” value was “did not reduce protein levels”. The “HiBiT-USP7 levels (in words)” value on HiBiT-USP7 (MV4-11 HiBiT-USP7, 6 h and 24 h) is reported as “partial reduction of USP7 levels”. The “Ternary complex induction (in words)” value in assay [1] is recorded as “neither the negative control NK245 nor the VHL ligand VH298 induced a ternary complex”.

In the case of `Cc1ncsc1-c1ccc([C@H](C)NC(=O)[C@@H]2C[C@@H](O)CN2C(=O)[C@@H](NC(=O)C23C4C5C2C2C3C4C52C(=O)N2CCC(C3CCN(c4ccc(-n5ncc6c(=O)n(CC7(O)CCN(C(=O)C[C@@H](C)c8ccccc8)CC7)cnc65)cc4)CC3)CC2)C(C)(C)C)cc1` (stereo partly drawn) [NK266], the “Time after which USP7 degradation was observed” value on USP7 (Panc89, 1 µM) is 16 h and 16 to 24 h. Further, the DC50 came to 49 nM at USP7 (setting [2]) and 24 nM on HiBiT-USP7. Further, on USP7 (Panc89, increasing concentrations), the “USP7 degradation (in words)” value is given as “near complete degradation of USP7”. The maximal degradation (Dmax) (commonly the greatest extent of degradation seen) on HiBiT-USP7 (MV4-11, MV4-11 HiBiT-USP7, 6 h) was 74%; at HiBiT-USP7 (setting [3]) it was 90 to 92%. For the same molecule, the “Ternary complex induction (in words)” value in assay [1] is given as “did not increase the BRET signal to the same level”.

For `Cc1ncsc1-c1ccc([C@H](C)NC(=O)[C@@H]2C[C@@H](O)CN2C(=O)[C@@H](NC(=O)[C@H]2CC[C@H](C(=O)N3CCN(c4ccc(-n5ncc6c(=O)n(CC7(O)CCN(C(=O)C[C@@H](C)c8ccccc8)CC7)cnc65)cc4)CC3)CC2)C(C)(C)C)cc1` [NK250], the “USP7 degradation (in words)” value at USP7 (Panc89, 5 µM, Western blot) is given as “complete degradation”. The “Concentration of near complete degradation of USP7” value at USP7 (Panc89, 24 h) is approximately 100 nM. Further, the Dmax at USP7 (setting [2]) is 98%; at HiBiT-USP7 (MV4-11, MV4-11 HiBiT-USP7, 6 h), 87%; on HiBiT-USP7 (setting [3]), 90 to 92%. Besides, the DC50 at USP7 (setting [2]) turned out to be 8 nM; on HiBiT-USP7, 4 nM. Further, the EC50 in assay [1] (compound 2 h prior BRET measurement, read-out: EC50 (half-maximal ternary complex formation concentration)) is 58 nM.

For the origin of these results see article PMC13172357 (Nature Communications, 2026).
